Counter-ions that a name gives are not always drawn. Like-named read-outs stand apart in the source and are kept apart here.
Key:
MRC-5 cells [1] = assay: MRC-5 cell viability, dose-response treatment, MTT assay; type: cell-based, human; settings: MRC-5 cells, MTT, 72 h, pH 7.4, n = 6, this work
[2] = pH 4; cited from earlier work
[3] = tested on: HEK293 ATCC CRL-1573 human embryonic kidney cells; assay: CO-ADD cytotoxicity assay (resazurin); type: cell-based; settings: for antiproliferative effect against HEK293 (in words): all concentrations examined (0.25-32 μg/mL), 20 h, CC50 could not be measured
MRC-5 cells [4] = settings: cited from earlier work
human red blood cells = assay: CO-ADD hemolysis assay; type: cell-based; settings: all concentrations examined (0.25-32 μg/mL), 1 h; HC10 and HC50 could not be measured
Method: The compounds were used as received by the CO-ADD. For the screenings, most compounds were dissolved to a stock concentration of 10 mg/mL in DMSO. K2[Ti(Citrate)3], Na3Citrate, and K2[TiO(Oxalate)2] were dissolved in warm water. [Cu(Deferasirox)(H2O)]2 was dissolved in pyridine after its solubility was determined to be excellent in pyridine due to coordination of the solvent to the metal producing [Cu(Deferasirox)(pyridine)]2 in situ. […] Each sample concentration was prepared in 384-well plates, non-binding surface plate (NBS; Corning 3640) for each bacterial/fungal strain, tissue-culture treated (TC-treated; Corning 3712/3764), black for mammalian cell types and polypropylene 384-well (PP; […] All sample preparation was conducted using liquid handling robots. Human whole blood (Australian Red Cross) was washed three times with three volumes of 0.9% NaCl and resuspended in a concentration of 0.5 × 10^8 cells per mL, determined by manual cell count in a Neubauer hemocytometer. Washed cells were added to the compound-containing plates (384-well polypropylene plates (PP); Corning 3657) for a final volume of 50 μL, shaken and incubated for 1 h at 37 °C. […]

[5] = Homo sapiens, MRC5, read-out: IC50 ± SD
[6] = Homo sapiens, MRC5, read-out: IC50 ± SD (µg/mL)

| Compound | IC50 (MRC-5 cells [1]; [5]) [µM] | IC50 (MRC-5 cells [1]; [6]) [µg/mL] | IC50 (MRC-5 cells [1]; read-out: IC50 ± SD) [µM] | antiproliferative effect against HEK293 (in words) [3] | other results |
| --- | --- | --- | --- | --- | --- |
| O=C(O)CC(O)(CC(=O)O)C(=O)O [Compound 1, Trisodium citrate, reference compound] | > 100 | > 29.4 | – | – | – |
| Oc1cc2ccccc2cc1O [Compound 2, 2,3-dihydroxynaphthalene, reference compound] | > 100 | > 16 | – | – | – |
| O=C(O)c1ccccc1O [Compound 6, salicylic acid, reference compound] | > 100 | > 13.8 | – | – | – |
| [K+].[K+].c1ccc2cc3c(cc2c1)[O][Ti-2]12([O]3)([O]c3cc4ccccc4cc3[O]1)[O]c1cc3ccccc3cc1[O]2 [Compound 8, K2[Ti(Naphthalene-2,3-diolate)3]] | – | – | > 100 | inactive | solution stability (in words) [2]: highly stable in solution; IC50 ± SD (µg/mL) (MRC-5 cells [1]): >>65.5 µg/mL |
| O=C(O)c1ccc(-n2nc3nc2-c2ccccc2[O][Ti]2([O]c4ccccc4-3)[O]c3ccccc3-c3nc(n(-c4ccc(C(=O)O)cc4)n3)-c3ccccc3[O]2)cc1 [Compound 10, titanium(IV) bis(deferasirox)] | – | – | – | insignificant antiproliferative effect | IC50 ± SD (MRC-5 cells [4]): 19.8 ± 0.8 µg/mL; IC50 (MRC-5 cells [4]; read-out: IC50 ± SD): 25 ± 1 µM; solution stability (in words) [2]: highly stable in solution; hemolysis of human red blood cells (in words) (human red blood cells): insignificant antiproliferative effect |
| O=C([O-])C(=O)O.O=C([O-])C(=O)O.[K+].[K+].[O]=[Ti] [Compound 14, Potassium dioxalatoxotitanate(IV) dihydrate] | – | – | > 100 | insignificant antiproliferative effect | IC50 ± SD (µg/mL) (MRC-5 cells [1]): >>35.4 µg/mL; hemolysis of human red blood cells (in words) (human red blood cells): insignificant antiproliferative effect |
| [Cu(Deferasirox)(H2O)]2 [Compound 15] | – | – | 8.4 ± 1.62 | – | IC50 ± SD (MRC-5 cells [1]): 7.70 ± 1.47 µg/mL; inhibition of HEK293 cell proliferation ([3]; at the maximum concentration tested): ~50% |
